# Earlier results as cited in patent US20200397720A1, “METHOD AND FORMULATION FOR TREATMENT OF WOUNDS BY NEW TISSUE REGENERATION WITH REDUCED TRAUMA AND SCAR TISSUE FORMATION” (priority 2019, published 2020).
# Test system: inflammatory cytokines, including IL-6 and TNF-α
# Conditions: high fat diet-induced atherosclerosis in rabbits
smiles,measurement,value
"CC1=C(/C=C/C(C)=C/C=C/C(C)=C/C(=O)O)C(C)(C)CCC1 [ATRA, all-trans retinoic acid]","effect on inflammatory cytokines, including IL-6 and TNF-α",lowering inflammatory cytokines
